Data set [1] relates to PANC1 cell line. Kind of data set: MTT anti-proliferative assay, PANC1. The conditions noted are these: for IC50: MTT, 48 h exposure, mean ± S.D., 3 separate experiments. The format is cell-based, human. As for the experimental part: (§1) 1. Anti-proliferative activity against HepG2 and PANC1 cancer cell lines
(§2) American Type Culture Collection (ATCC). Cells lines were maintained as monolayers in Dulbecco’s Modified Eagle’s Medium (DMEM) supplemented with 10% FBS, 2 mM L-glutamine, 100 U/ml penicillin and 100µg/ml streptomycin sulfate. Cells were sub-cultured with trypsine /EDTA solution, counted with haemocytometer and plated onto 96-well plates (5000 cells/well) and left overnight to form a semi-confluent monolayer. Cell monolayers were treated in quadrates with vehicle (DMSO, 0.1% v/v), and test samples […]
end of exposure, MTT solution in PBS (5 mg/ml) was then added to all well including no cell blank and left to incubate for 90 min. The formation of formazan crystals were visually confirmed using phase contract microscopy. DMSO (100 µl/well) was added to dissolve the formazan crystals with shaking for 10 min after which the absorbance was read at 590 nm against no cell blanks on a FLuo Star Optima microplate reader (BMG technologies, Germany). Cell proliferation was calculated comparing the OD values of the DMSO control wells and those of the samples represented as % proliferation to the control. Dose-response experiment was performed on samples producing > or =50% loss of cell […]
(§3) vehicle control) were calculated using non-linear regression curve fitting of the dose response plots on GraphPad Prism V.6.0 software.
For orientation: Formazan colour is commonly taken as a measure of viable cells.

Data set [2] concerns HepG2 cell line. The experiment in a line: MTT anti-proliferative assay, HepG2. Particulars: mean ± S.D., 3 separate experiments. The format is cell-based, human. The procedure: as §1, §2
end of exposure, MTT solution in PBS (5 mg/ml) was then added to all well including no cell blank and left to incubate for 90 min. The formation of formazan crystals were visually confirmed using phase contract microscopy. DMSO (100 µl/well) was added to dissolve the formazan crystals with shaking for 10 min after which the absorbance was read at 590 nm against no cell blanks on a FLuo Star Optima microplate reader (BMG technologies, Germany). Cell proliferation was calculated comparing the OD values of the DMSO control wells and those of the samples represented as % proliferation to the control. Dose-response experiment was performed on samples producing > or =50% loss of cell proliferation using five serial 2-fold dilutions (50, 25, 12.5, 6.25 and 3.125 µM) of the […]
as §3

The nature of data set [3]: Cytotoxicity against non-tumorigenic Vero cell line. The format is cell-based. Particulars: African green monkey, Vero cells (non-tumorigenic), read-out: IC50 Vero (cytotoxic activity).
Data set [4] deals with T1, VEGFR-2 (Homo sapiens, UniProt P35968). Kind of data set: biochemical.
T1 sequence (P35968 20-1356): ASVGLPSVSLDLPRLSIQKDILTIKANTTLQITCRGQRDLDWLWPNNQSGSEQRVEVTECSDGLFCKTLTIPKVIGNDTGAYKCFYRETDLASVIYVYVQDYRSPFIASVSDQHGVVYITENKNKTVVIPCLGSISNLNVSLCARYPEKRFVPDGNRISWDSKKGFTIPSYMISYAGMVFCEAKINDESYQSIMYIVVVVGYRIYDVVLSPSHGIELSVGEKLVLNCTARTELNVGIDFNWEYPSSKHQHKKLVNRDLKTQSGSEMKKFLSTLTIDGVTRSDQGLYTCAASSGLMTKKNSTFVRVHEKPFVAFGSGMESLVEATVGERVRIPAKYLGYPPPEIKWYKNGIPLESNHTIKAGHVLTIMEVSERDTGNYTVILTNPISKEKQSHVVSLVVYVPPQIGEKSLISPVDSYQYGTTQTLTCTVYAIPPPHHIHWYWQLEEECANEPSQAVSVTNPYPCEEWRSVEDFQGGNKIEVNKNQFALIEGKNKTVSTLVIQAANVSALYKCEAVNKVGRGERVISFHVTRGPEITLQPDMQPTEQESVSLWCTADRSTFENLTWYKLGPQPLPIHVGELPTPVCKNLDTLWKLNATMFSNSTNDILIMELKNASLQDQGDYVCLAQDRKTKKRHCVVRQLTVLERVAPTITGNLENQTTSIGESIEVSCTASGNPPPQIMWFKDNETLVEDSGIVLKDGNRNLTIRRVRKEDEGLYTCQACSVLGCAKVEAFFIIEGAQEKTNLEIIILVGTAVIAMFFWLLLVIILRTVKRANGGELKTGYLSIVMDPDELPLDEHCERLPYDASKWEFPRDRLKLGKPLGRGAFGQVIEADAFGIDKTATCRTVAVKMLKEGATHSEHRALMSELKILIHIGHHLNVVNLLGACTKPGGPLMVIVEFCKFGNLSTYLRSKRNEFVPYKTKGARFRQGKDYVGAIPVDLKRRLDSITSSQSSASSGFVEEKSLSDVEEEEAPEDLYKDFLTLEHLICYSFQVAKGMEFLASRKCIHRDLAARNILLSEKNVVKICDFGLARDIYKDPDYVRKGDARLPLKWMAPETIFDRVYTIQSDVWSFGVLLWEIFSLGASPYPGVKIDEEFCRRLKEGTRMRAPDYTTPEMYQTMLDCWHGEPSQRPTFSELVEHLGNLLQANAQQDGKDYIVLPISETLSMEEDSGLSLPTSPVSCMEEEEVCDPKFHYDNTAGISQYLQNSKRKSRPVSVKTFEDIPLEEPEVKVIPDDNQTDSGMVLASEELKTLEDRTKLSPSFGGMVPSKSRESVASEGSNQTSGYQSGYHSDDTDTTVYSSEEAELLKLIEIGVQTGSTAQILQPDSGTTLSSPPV
Description: (§4) In brief, the master mixture was produced (25 μL per well) and poured into
(§5) each well. Each well received 5 μL of inhibitor solution designated as "Test Inhibitor". The "Positive Control" and "Blank" groups received 5 μL of the same solution without the
(§6) inhibitor (Inhibitor buffer). In order to prepare 3 mL of kinase buffer, 600 μL of kinase
(§7) buffer were combined with 2400 μL of water. The blank wells received 20 μL of kinase
(§8) buffer. The amount of VEGFR-2 required for the test was measured and the enzyme was
(§9) diluted to 1 ng/ μL with kinase buffer. 20 μL of diluted VEGFR-2 enzymes was added to
(§10) the wells designated as "Test Inhibitor Control” and “Positive Control” to start the reaction
(§11) and the mixtures were incubated at 30 °C for 45 minutes. After the 45 minutes, each well received 50 μL of KinaseGlo Max reagent and the plate was incubated at room temperature
(§12) for 15 minutes. The luminescence was measured with a microplate reader.
The target in data set [5] is T1, VEGFR-2. Kind of data set: VEGFR-2 Kinase Assay Kit (BPS Bioscience).
Description: as §4, §5, §6, §7, §8, §9, §10, §11, §12
Data set [6] has as its system Vero cell line. The experiment in a line: Cytotoxicity against non-tumorigenic Vero cell line. Particulars: read-out: IC50 Vero (cytotoxic activity). The format is cell-based.
For data set [7], the target named is T1, VEGFR-2. On the set-up: purchased BPS Bioscience 40325; method as in PMID 35217379. Particulars: cited from earlier work.
For data set [8], the system named is HepG2. Details: method as in doi:10.1016/j.molstruc.2021.131832. Particulars: hepatocellular cell line HepG2; cited from earlier work.
In data set [9] the target is T1, VEGFR-2. On the set-up: purchased BPS Bioscience 40325; method as in doi:10.1016/j.molstruc.2021.131832. Particulars: cited from earlier work.
Where [10] appears, read: Homo sapiens, HepG2, 48 h exposure.

Like-named read-outs stand apart in the source and are kept apart here. Bounds are passed on as bounds.

One may read the IC50 as the concentration that inhibits the measured activity by half. For the compound `COc1ccc2c(c1)C(=NNC(=O)c1nc(-c3ccc(NC(C)=O)cc3)n(-c3ccc(Cl)cc3)n1)C(=O)N2` [11k, N-{4-[1-(4-Chlorophenyl)-3-{N′-[5-methoxy-2-oxo-2,3-dihydro-1H-indol-3-ylidene]hydrazinecarbonyl}-1H-1,2,4-triazol-5-yl]phenyl}acetamide], the 50% inhibitory concentration (IC50) in [1] (Homo sapiens, PANC-1) is 1780 ± 40 nM; in data set [2] (setting [10]), 730 ± 10 nM; in data set [3], 13200 ± 1090 nM; in data set [4], 41.3 ± 0.31 nM. For the same compound, the “times increase of VEGFR-2 activity compared to 11g” value in [5] (versus unsubstituted indolin-2-one 11g) is listed as “approximately 3 times”.

On to `COc1cccc2c1C(=O)c1c(O)c3c(c(O)c1C2=O)C[C@@](O)(C(=O)CO)C[C@@H]3O[C@H]1C[C@H](N)[C@H](O)[C@H](C)O1` [Dox., reference compound], for which the IC50 in [1] was found to be 190 ± 10 nM; in data set [2] (48 h exposure) it was 430 ± 20 nM.

On to `CC(=O)Nc1ccc(-c2nc(C(=O)NN=C3C(=O)N(Cc4ccccc4)c4ccc(Br)cc43)nn2-c2ccc(F)cc2)cc1` [14b, N-[4-(3-{N′-[1-Benzyl-5-bromo-2-oxo-2,3-dihydro-1H-indol-3-ylidene]hydrazinecarbonyl}-1-(4-fluorophenyl)-1H-1,2,4-triazol-5-yl)phenyl]acetamide], for which the IC50 amounted to 760 ± 40 nM in [1] (Homo sapiens, PANC-1) and 980 nM in data set [2] (setting [10]).

On to `CC(=O)Nc1ccc(-c2nc(C(=O)NN=C3C(=O)Nc4ccc(F)cc43)nn2-c2ccc(F)cc2)cc1` [11b, N-[4-(3-{N′-[5-Fluoro-2-oxo-2,3-dihydro-1H-indol-3-ylidene]hydrazinecarbonyl}-1-(4-fluorophenyl)-1H-1,2,4-triazol-5-yl)phenyl]acetamide], for which the 50% inhibitory concentration (IC50) in data set [1] (Homo sapiens, PANC-1) was 1740 ± 20 nM; in [2] (setting [10]) it was 1170 ± 30 nM.

For `COc1ccc2c(c1)C(=NNC(=O)c1nc(-c3ccc(NC(C)=O)cc3)n(-c3ccc(F)cc3)n1)C(=O)N2` [11e, N-{4-[1-(4-Fluorophenyl)-3-{N′-[5-methoxy-2-oxo-2,3-dihydro-1H-indol-3-ylidene]hydrazinecarbonyl}-1H-1,2,4-triazol-5-yl]phenyl}acetamide], the IC50 came out at 2220 ± 70 nM in data set [1] (Homo sapiens, PANC-1); 760 ± 20 nM in data set [2] (setting [10]); 8350 ± 620 nM in [3]; 11700 ± 930 nM in [6]; 48.4 ± 0.39 nM in [4].

In the case of `CC(=O)Nc1ccc(-c2nc(C(=O)NN=C3C(=O)N(C)c4ccccc43)nn2-c2ccc(Cl)cc2)cc1` [14c, N-{4-[1-(4-Chlorophenyl)-3-{N′-[1-methyl-2-oxo-2,3-dihydro-1H-indol-3-ylidene]hydrazinecarbonyl}-1H-1,2,4-triazol-5-yl]phenyl}acetamide], the IC50 in data set [1] (Homo sapiens, PANC-1) came to 200 nM; in data set [2] (setting [10]) it was 580 ± 10 nM; in data set [3], 7920 ± 480 nM.

On to `CC(=O)Nc1ccc(-c2nc(C(=O)NN=C3C(=O)Nc4ccc([N+](=O)[O-])cc43)nn2-c2ccc(Cl)cc2)cc1` [11l, N-{4-[1-(4-Chlorophenyl)-3-{N′-[5-nitro-2-oxo-2,3-dihydro-1H-indol-3-ylidene]hydrazinecarbonyl}-1H-1,2,4-triazol-5-yl]phenyl}acetamide], for which the IC50 in [1] (Homo sapiens, PANC-1) was 170 ± 10 nM; in data set [2] (setting [10]), 1730 ± 60 nM.

`CC(=O)Nc1ccc(-c2nc(C(=O)NN=C3C(=O)Nc4ccc(Br)cc43)nn2-c2ccc(F)cc2)cc1` [11d, N-[4-(3-{N′-[5-Bromo-2-oxo-2,3-dihydro-1H-indol-3-ylidene]hydrazinecarbonyl}-1-(4-fluorophenyl)-1H-1,2,4-triazol-5-yl)phenyl]acetamide]: the 50% inhibitory concentration (IC50) in data set [1] (Homo sapiens, PANC-1) is 1160 ± 20 nM; in data set [2] (setting [10]), 730 ± 20 nM; in data set [3], 11700 ± 930 nM; in data set [6], 8350 ± 620 nM; in [4], 16.3 ± 0.42 nM. The “fold enhancement of efficacy against VEGFR-2 compared to 11e” value in [5] (5-Br versus 5-OCH3 (11e)) is on record as “approximately 3 fold”.

Take `CC(=O)Nc1ccc(-c2nc(C(=O)NN=C3C(=O)Nc4ccc([N+](=O)[O-])cc43)nn2-c2ccc(F)cc2)cc1` [11f, N-{4-[1-(4-Fluorophenyl)-3-{N′-[5-nitro-2-oxo-2,3-dihydro-1H-indol-3-ylidene]hydrazinecarbonyl}-1H-1,2,4-triazol-5-yl]phenyl}acetamide]: the 50% inhibitory concentration (IC50) in [1] (Homo sapiens, PANC-1) came to 230 ± 10 nM; in [2] (setting [10]) it was 2410 ± 40 nM.

As to `CC(=O)Nc1ccc(-c2nc(C(=O)NN=C3C(=O)Nc4ccc(Cl)cc43)nn2-c2ccc(F)cc2)cc1` [11c, N-[4-(3-{N′-[5-Chloro-2-oxo-2,3-dihydro-1H-indol-3-ylidene]hydrazinecarbonyl}-1-(4-fluorophenyl)-1H-1,2,4-triazol-5-yl)phenyl]acetamide], the IC50 in [1] (Homo sapiens, PANC-1) worked out at 980 ± 60 nM; in data set [2] (setting [10]), 2210 ± 30 nM.

The melting point is the temperature, or range, at which the solid turns liquid. Regarding `CC(=O)Nc1ccc(-c2nc(C(=O)NN=C3C(=O)Nc4ccc(F)cc43)nn2-c2ccc(Cl)cc2)cc1` [11h, N-{4-[1-(4-Chlorophenyl)-3-{N′-[5-fluoro-2-oxo-2,3-dihydro-1H-indol-3-ylidene]hydrazinecarbonyl}-1H-1,2,4-triazol-5-yl]phenyl}acetamide], the melting point was above 300 °C. The IC50 in [1] (Homo sapiens, PANC-1) was 220 ± 10 nM. For the same compound, the “fold improvement of efficacy against PANC1 compared to 11b” value in [1] (versus fluorinated-phenyl counterpart 11b) is on record as 8 fold. The IC50 in [2] (setting [10]) turned out to be 1270 ± 40 nM.

`CC(=O)Nc1ccc(-c2nc(C(=O)NN=C3C(=O)N(Cc4ccccc4)c4ccc(Br)cc43)nn2-c2ccc(Cl)cc2)cc1` [14d, N-[4-(3-{N′-[1-Benzyl-5-bromo-2-oxo-2,3-dihydro-1H-indol-3-ylidene]hydrazinecarbonyl}-1-(4-chlorophenyl)-1H-1,2,4-triazol-5-yl)phenyl]acetamide]: the IC50 in data set [1] (Homo sapiens, PANC-1) was 420 ± 10 nM; in data set [2] (setting [10]), 920 ± 20 nM.

In the case of `CC(=O)Nc1ccc(-c2nc(C(=O)NN=C3C(=O)N(C)c4ccccc43)nn2-c2ccc(F)cc2)cc1` [14a, N-{4-[1-(4-Fluorophenyl)-3-{N′-[1-methyl-2-oxo-2,3-dihydro-1H-indol-3-ylidene]hydrazinecarbonyl}-1H-1,2,4-triazol-5-yl]phenyl}acetamide], the IC50 in data set [1] (Homo sapiens, PANC-1) is 4050 ± 100 nM; in [2] (setting [10]) it was 1630 ± 20 nM.

In the case of `CC(=O)Nc1ccc(-c2nc(C(=O)NN=C3C(=O)Nc4ccc(Cl)cc43)nn2-c2ccc(Cl)cc2)cc1` [11i, N-[4-(3-{N′-[5-Chloro-2-oxo-2,3-dihydro-1H-indol-3-ylidene]hydrazinecarbonyl}-1-(4-chlorophenyl)-1H-1,2,4-triazol-5-yl)phenyl]acetamide], the IC50 was 3750 ± 90 nM in data set [1] (Homo sapiens, PANC-1) and 4490 ± 150 nM in data set [2] (setting [10]).

As for `CC(=O)Nc1ccc(-c2nc(C(=O)NN=C3C(=O)Nc4ccccc43)nn2-c2ccc(Cl)cc2)cc1` [11g, N-{4-[1-(4-Chlorophenyl)-3-{N′-[2-oxo-2,3-dihydro-1H-indol-3-ylidene]hydrazinecarbonyl}-1H-1,2,4-triazol-5-yl]phenyl}acetamide], the IC50 in data set [1] (Homo sapiens, PANC-1) turned out to be 770 ± 20 nM; in data set [2] (setting [10]), 710 ± 10 nM; in data set [3] it was 10600 ± 710 nM.

Turning to `Cc1ccc(NC(=O)CSc2nnc(Cn3c(=O)c(C)nc4ccccc43)n2C)cc1` [I], the IC50 in data set [7] is 60 nM.

With `CC(=O)Nc1ccc(-c2nc(C(=O)NN=C3C(=O)Nc4ccc(Br)cc43)nn2-c2ccc(Cl)cc2)cc1` [11j, N-[4-(3-{N′-[5-Bromo-2-oxo-2,3-dihydro-1H-indol-3-ylidene]hydrazinecarbonyl}-1-(4-chlorophenyl)-1H-1,2,4-triazol-5-yl)phenyl]acetamide], the half-inhibitory concentration (IC50) in [1] (Homo sapiens, PANC-1) was found to be 1680 ± 60 nM; in data set [2] (setting [10]) it was 1010 ± 20 nM.

Regarding `CC(=O)Nc1ccc(-c2nc(C(=O)NN=C3C(=O)Nc4ccccc43)nn2-c2ccc(F)cc2)cc1` [11a, N-{4-[1-(4-Fluorophenyl)-3-{N′-[2-oxo-2,3-dihydro-1H-indol-3-ylidene]hydrazinecarbonyl}-1H-1,2,4-triazol-5-yl]phenyl}acetamide], the half-inhibitory concentration (IC50) in [1] (Homo sapiens, PANC-1) came to 4290 ± 100 nM; in data set [2] (setting [10]), 2060 ± 30 nM.

Turning to `CCOC(=O)/C(=N\Nc1ccc(Cl)cc1)Sc1nnc(C(F)(F)F)n1/N=C/c1ccc(OC)cc1` [II], the values for the IC50 in data set [8] and in data set [9] were 10000 nM and 74 nM, respectively.

The values are drawn from publication PMC10820444, “1,2,4-Triazole-Tethered Indolinones as New Cancer-Fighting Small Molecules Targeting VEGFR-2: Synthesis, Biological Evaluations and Molecular Docking” (Pharmaceuticals, 2024).
